Assay results as given in US20060167229A1, “Biologically active peptide conjugates” (priority 2002, published 2006).
Marks after values point to notes of the source that are not given here. Ends that are not written are not given here.

Key:
[1] = tested on: anti-SRBC antibody; assay: Sheep Red Blood Cell (SRBC) hemolysis test, antibody formation; assay type: in vivo, BALB/c mice; details: for anti-SRBC antibody formation, X ± SD (Unit): healthy mice, SRBC day 12 (IFN-γ, IL-2 3×10^5 IU/kg/day), saline 32 ± 7; for effect on the synthesis of anti-SRBC antibody upon the antigenic challenge (summary): statistically significant difference from saline in any of the dosage groups 0.5-500 μg/kg/day
Procedure, shortened: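 Mice immunized intraperitoneally with 0.2 ml SRBC on day 12; serum taken on day 16, diluted 500-fold. Serum incubated with 2% SRBC and guinea pig complement 10 min at 37° C; released haemoglobin read at OD540 with Drabkin solution. Serum index = (sample OD540 ÷ reference OD540) × 500.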

[2] = tested on: interferon (IFN); design: species or system BALB/c mice; details: mouse, in vivo; for activity of T lymphocyte in secreting IFN, X ± SD (IU): ip
[3] = tested on: mononuclear phagocyte; assay: Carbon particle clearance test, phagocytosis function; assay type: in vivo, BALB/c mice; design: key to X ± SD (phagocytotic index): α = cube root of K × (body weight ÷ liver+spleen weight); details: for X ± SD (phagocytotic index): healthy mice, saline 5.1 ± 0.6; for effect on the phagocytotic activity of mononuclear phagocyte (summary): statistically significant difference from saline in any of the dosage groups 0.5-500 μg/kg/day
Procedure, shortened: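 Clearance index K came from OD680 of blood sampled 1 and 5 min after tail-vein India ink ([…], diluted 5×), given on day 16. Phagocytic index α combined K with liver, spleen […] weights taken the same day.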

[4] = tested on: NK cell; assay: NK cell cytotoxicity activity test (spleen cells of treated mice against YAC-1 target cells, MTT); assay type: in vivo, BALB/c mice; details: for NK cell cytotoxic activity, X ± SD (%): healthy mice; for effect on the cytotoxic activity of NK cells (summary): statistically significant difference from saline in any of the dosage groups 0.5-500 μg/kg/day
Procedure, shortened: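 Mice (10 per group) dosed i.p. once daily for 15 days in saline; spleen cells harvested the next day. Splenocytes (4×10^6/ml) co-cultured with YAC-1 targets (1×10^5/ml), in triplicate per mouse. Viability by MTT (1 mg/ml, 4 h, 37 °C), read at OD570 against 630 nm.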

[5] = tested on: thymus gland; assay: Immunity organ weight test, thymus gland index; assay type: in vivo, BALB/c mice; details: for weight of thymus gland (thymus gland index), X ± SD (%): healthy mice, saline 0.12 ± 0.02; for effect on the weight of the thymus gland (summary): statistically significant difference from saline in any of the dosage groups 0.5-500 μg/kg/day
Experimental: One day after the last test substance administration (day 16), the liver, spleen, and thymus gland were separated and blotted dry with filter paper and weighed. The phagocytosis index α was calculated as below: α=(^3√{square root over ( )}K)(W÷WLS)
Thymus gland index (%)=(thymus weight/body weight)×100%

[6] = peptide 5 μg/kg/day i.p. 15 days
[7] = peptide 50 μg/kg/day i.p. 15 days
[8] = peptide 500 μg/kg/day i.p. 15 days
[9] = peptide 5 μg/kg/day i.p. 15 days (IFN-γ, IL-2 3×10^5 IU/kg/day)
[10] = peptide 500 μg/kg/day i.p. 15 days (IFN-γ, IL-2 3×10^5 IU/kg/day)
[11] = peptide 50 μg/kg/day i.p. 15 days (IFN-γ, IL-2 3×10^5 IU/kg/day), saline 56 ± 8
[12] = peptide 0.5 μg/kg/day i.p. 15 days (IFN-γ, IL-2 3×10^5 IU/kg/day)
[13] = peptide 50 μg/kg/day i.p. 15 days (IFN-γ, IL-2 3×10^5 IU/kg/day)
[14] = peptide 0.5 μg/kg/day i.p. 15 days (IFN-γ, IL-2 3×10^5 IU/kg/day), saline 58 ± 7
[15] = peptide 5 μg/kg/day i.p. 15 days (IFN-γ, IL-2 3×10^5 IU/kg/day), saline 60 ± 9

Substance	anti-SRBC antibody formation, X ± SD (Unit) ([1]; peptide 0.5 μg/kg/day i.p. 15 days)	anti-SRBC antibody formation, X ± SD (Unit) [1, 6]	anti-SRBC antibody formation, X ± SD (Unit) [1, 7]	anti-SRBC antibody formation, X ± SD (Unit) [1, 8]	effect on the secretion of IFN by T lymphocytes (summary) [2]	activity of T lymphocyte in secreting IFN, X ± SD (IU) [2] [IU]	X ± SD (phagocytotic index) [3, 9]	X ± SD (phagocytotic index) [3, 10]	effect on the phagocytotic activity of mononuclear phagocyte (summary) [3]	NK cell cytotoxic activity, X ± SD (%) [4, 11] [%]	effect on the cytotoxic activity of NK cells (summary) [4]	effect on the synthesis of anti-SRBC antibody upon the antigenic challenge (summary) [1]	weight of thymus gland (thymus gland index), X ± SD (%) [5, 12]	weight of thymus gland (thymus gland index), X ± SD (%) [5, 13]	weight of thymus gland (thymus gland index), X ± SD (%) [5, 10]	effect on the weight of the thymus gland (summary) [5]	NK cell cytotoxic activity, X ± SD (%) [4, 14] [%]	NK cell cytotoxic activity, X ± SD (%) [4, 15]	weight of thymus gland (thymus gland index), X ± SD (%) [5, 9]	NK cell cytotoxic activity, X ± SD (%) ([4]; peptide 500 μg/kg/day i.p. 15 days (IFN-γ, IL-2 3×10^5 IU/kg/day), saline 63 ± 9)
FNFVPP [CMS003]	2 ± 1	91 ± 24*^@ Unit	52 ± 11 Unit	96 ± 18*^@ Unit	enhance	106 ± 16	6.9 ± 0.9*^	6.6 ± 0.7	enhance	85 ± 6	increase	–	–	–	–	–	–	–	–	–
KAVGHLDDLPGAL [CMS008]	–	97 ± 26*^@ Unit	–	82 ± 15*^@ Unit	–	–	6.4 ± 0.5	6.5 ± 1.2	enhance	–	–	enhance	0.22 ± 0.07*^ %	0.20 ± 0.04*^@^ %	0.21 ± 0.03*^@^ %	increase	46 ± 12	92 ± 4*^@^ %	–	–
LGMQACGIHETTY [CMS012]	–	81 ± 22*^@ Unit	50 ± 14 Unit	141 ± 21*^@^ Unit	enhance	86 ± 9	–	–	–	40 ± 9	–	enhance	0.22 ± 0.06*^ %	0.26 ± 0.02*^@^ %	–	increase	77 ± 6	85 ± 7 %	0.27 ± 0.06*^@^ %	–
PTTKTYFPHF [CMS001]	–	110 ± 24*^@ Unit	–	–	enhance	110 ± 15	–	–	–	85 ± 10	increase	enhance	–	–	–	increase	–	–	0.22 ± 0.05 %	–
Phe Gln Gln Gln (FQQQ; printed: Phe Gln Gln Gln) [CMS032]	–	157 ± 37*^@^ Unit	131 ± 24*^@^ Unit	–	–	–	–	–	–	–	increase	enhance	0.21 ± 0.06 %	0.27 ± 0.03*^@^ %	0.25 ± 0.03*^@^ %	increase	–	–	0.29 ± 0.04*^@^ %	87 ± 5
